This is an account of results in patent US6831190B1, “Guanidinomethyl cyclohexane carboxylic acid ester derivatives” (Teikoku Chemical Industries Co., Ltd., priority 1994, dated 2004).

Common to all, as to type: cell-based
Experiment [1] relates to Escherichia coli NIH JC-2. As to the kind of experiment: MIC, standard method of Japanese Chemotherapy Academy. The conditions noted are these: Objected Strain 3: Escherichia coli NIH JC-2. How it is done: (§1) 1. Minimum Inhibitory Concentration (MIC) was measured in accordance with the standard method of Japanese Chemotherapy Academy (Chemotherapy, 29: 76-79, 1981).
Experiment [2] has as its system Helicobacter pylori ATCC 43504. The experiment in a line: MIC, agar plating dilution (standard method of Japanese Chemotherapy Academy). The conditions noted are these: Objected Strain 1: Helicobacter pylori ATCC 43504. How it is done:
(§2) 1. Minimum Inhibitory Concentration (MIC) was measured in accordance with the standard method of Japanese Chemotherapy Academy (Chemotherapy, 29: 76-79, 1981). Sensitivity was measured with an agar plating dilution using Brain-Heart Infusion agar (Difco Co.) which was added 0.1% of cyclodextrin. […] of the solutions of the compounds which were obtained in examples of the present invention was prepared by dissolving in dimethylsulfoxide. […] Each of 1 ml of those prepared solutions was dispensed in share, after sterilization, 9 ml of sensitivity measuring medium which is kept at 50° C. was added to each, and they were sufficiently mixed. The mixture was used as a plate for measuring sensitivity. Brain Heart Infusion agar medium (Difco Co.), which was added 0.1% of cyclodextrin, was used as bacteria growing medium, and was cultured under microair at 37° C. for three days, and the number of bacteria thereof was adjusted to about 106/ml. This was used as a bacterial solution for inoculation. The medium was painted in each square about 2 cm with nichromic line loop. The medium was cultured under microair for three days at 37° C.

The test system of experiment [3] is Helicobacter pylori ATCC 43629. The description is as above. The note with it: Objected Strain 2: Helicobacter pylori ATCC 43629. As for the experimental part:
as §2

Experiment [4] relates to Helicobacter pylori No. 4. As to the kind of experiment: MIC, agar plating dilution, clinical segregation strain. The note with it: Strain 7: Helicobacter pylori No. 4. How it is done: (§3) Minimum Inhibitory Concentration (MIC) was measured in accordance with the standard method of Japanese Chemotherapy Academy (Chemotherapy, 29: 76-79, 1981). Sensitivity was measured with an agar plating dilution using Brain-Heart Infusion agar (Difco Co.) which was added 0.1% of cyclodextrin. […] of the solutions of the compounds which were obtained in examples of the present invention was prepared by dissolving in dimethylsulfoxide. […] Each of 1 ml of those prepared solutions was dispensed in share, after sterilization, 9 ml of sensitivity measuring medium which is kept at 50° C. was added to each, and they were sufficiently mixed. The mixture was used as a plate for measuring sensitivity. Brain Heart Infusion agar medium (Difco Co.), which was added 0.1% of cyclodextrin, was used as bacteria growing medium, and was cultured under microair at 37° C. for three days, and the number of bacteria thereof was adjusted to about 106/ml. This was used as a bacterial solution for inoculation. The medium was painted in each square about 2 cm with nichromic line loop. The medium was cultured under microair for three days at 37° C. […] The each result is shown at Table 4.

Experiment [5] deals with Helicobacter pylori No. 3. The experiment is described as above. The conditions noted are these: Strain 6: Helicobacter pylori No. 3. How it is done: as §3
Experiment [6] concerns Helicobacter pylori No. 2. The experiment is described as above. The note with it: Strain 5: Helicobacter pylori No. 2. How it is done:
as §3

Experiment [7] relates to Helicobacter pylori No. 1. Described as above. The conditions noted are these: Strain 4: Helicobacter pylori No. 1. As for the experimental part: as §3
Experiment [8] relates to Staphylococcus aureus ATCC 6538. As to the kind of experiment: MIC, standard method of Japanese Chemotherapy Academy. The conditions noted are these: Strain 12: Staphylococcus aureus ATCC 6538. As for the experimental part: as §1
(§4) And MIC of the compounds of Example 3, 36, 8, 14, 17, 21, 41 and 45 were measured.

Experiment [9] deals with Bacillus subtilis ATCC 6633. Described as above. The note with it: for MIC: Strain 13: Bacillus subtilis ATCC 6633; for MIC against bacillus subcillus ATCC 6633: standard method of Japanese Chemotherapy Academy. As for the experimental part:
as §1, §4

Experiment [10] has as its system Staphylococcus aureus No. 2 (MRSA). Described as above. The conditions noted are these: Strain 14: Staphylococcus aureus No. 2 (MRSA). As for the experimental part: as §1, §4
The test system of experiment [11] is Staphylococcus aureus 209PJC. The description is as above. The conditions noted are these: Strain 11: Staphylococcus aureus 209PJC. As for the experimental part:
as §1, §4

The subject of experiment [12] is Helicobacter pylori No. 19. The experiment in a line: MIC, agar plating dilution, clinical segregation strain. The note with it: Strain 8: Helicobacter pylori No. 19. As for the experimental part:
as §3

In experiment [13] the test system is Helicobacter pylori No. 28. The experiment is described as above. The conditions noted are these: Strain 10: Helicobacter pylori No. 28. As for the experimental part:
as §3

Experiment [14] concerns Helicobacter pylori No. 20. Described as above. The note with it: Strain 9: Helicobacter pylori No. 20. As for the experimental part: as §3

For the compound `CC(C)(C)c1ccc(COC(=O)c2ccc(-c3ccc(OC(=O)[C@H]4CC[C@H](CNC(=N)N)CC4)cc3)cc2)cc1.Cl` [Example 17, trans-4-guanidinomethyl cyclohexane carboxylic acid [4-[4-(4-t-butylbenzyloxy carbonyl)phenyl]phenylester].hydrochloride], the minimum inhibitory concentration (MIC) in experiment [1] was above 25 µg/mL; in experiment [2] it was 0.78 µg/mL; in [3] it was 0.39 µg/mL; in experiment [4] it was 0.20 µg/mL; in experiment [5] it was 0.20 µg/mL; in [6], 0.39 µg/mL. For the same compound, the MIC was 0.20 µg/mL in [7]; above 25 µg/mL in experiment [8]; above 25 µg/mL in experiment [9]; above 25 µg/mL in [10]; above 25 µg/mL in experiment [11]. The compound also showed an MIC against bacillus subcillus ATCC 6633 in experiment [9] above 25 µg/mL.

For `Cl.N=C(N)NC[C@H]1CC[C@H](C(=O)Oc2ccc(-c3ccc(C(=O)OCc4ccccc4)cc3)cc2)CC1` [Example 3, trans-4-guanidinomethyl cyclohexane carboxylic acid [4-(4-benzyloxycarbonylphenyl)phenylester].hydrochloride], the MIC was above 25 µg/mL in experiment [1]; 0.78 µg/mL in [2]; 0.39 µg/mL in experiment [3]; 0.39 µg/mL in experiment [4]; 0.10 µg/mL in experiment [5]; 0.39 µg/mL in experiment [6]. The MIC stood at 0.20 µg/mL in experiment [7]; 6.25 µg/mL in [8]; 25 µg/mL in experiment [9]; 3.13 µg/mL in experiment [10]; 3.13 µg/mL in experiment [11]. In [9], this compound displayed an MIC against bacillus subcillus ATCC 6633 above 25 µg/mL.

Turning to `Cc1cccc(COC(=O)c2ccc(-c3ccc(OC(=O)[C@H]4CC[C@H](CNC(=N)N)CC4)cc3)cc2)c1.Cl` [Example 44, trans-4-guanidinomethyl cyclohexane carboxylic acid[4-[4-(3-methylbenzyloxycarbonyl)phenyl]phenylester].hydrochloride], the minimal inhibitory concentration (MIC) is above 25 µg/mL in experiment [1]; 0.20 µg/mL in experiment [2]; 0.20 µg/mL in experiment [3]; 0.20 µg/mL in experiment [12]; 0.39 µg/mL in experiment [13]; 0.78 µg/mL in experiment [4]. Further, the MIC in experiment [5] was found to be 0.20 µg/mL; in experiment [6], 0.39 µg/mL; in experiment [7], 0.39 µg/mL; in [14], 0.20 µg/mL.

With `Cc1ccc(CCOC(=O)c2ccc(-c3ccc(OC(=O)[C@H]4CC[C@H](CNC(=N)N)CC4)cc3)cc2)cc1.Cl` [Example 46, trans-4-guanidinomethyl cyclohexane carboxylic acid[4-[4-[2-(4-methylphenyl)ethyloxycarbonyl)phenyl]phenylester].hydrochloride], the MIC in experiment [1] was above 25 µg/mL; in [2], 0.78 µg/mL; in experiment [3], 0.78 µg/mL; in [12], 0.39 µg/mL; in experiment [13], 0.39 µg/mL; in experiment [4], 3.13 µg/mL. Besides, the MIC in experiment [5] amounted to 0.20 µg/mL; in [6], 0.39 µg/mL; in [7], 0.39 µg/mL; in experiment [14], 0.20 µg/mL.

With `Cl.N=C(N)NC[C@H]1CC[C@H](C(=O)Oc2ccc(-c3ccc(C(=O)OCc4ccc(C(F)(F)F)cc4)cc3)cc2)CC1` [Example 21, trans-4-guanidinomethyl cyclohexane carboxylic acid [4-[4-(4-trifuluoromethyl benzyloxycarbonyl)phenyl]phenylester].hydrochloride], the minimal inhibitory concentration (MIC) was above 25 µg/mL in experiment [1]; 0.39 µg/mL in experiment [2]; 0.78 µg/mL in experiment [3]; 0.39 µg/mL in [4]; 0.10 µg/mL in experiment [5]; 0.39 µg/mL in experiment [6]. Besides, the MIC in experiment [7] is 0.20 µg/mL; in experiment [8], above 25 µg/mL; in [9] it was above 25 µg/mL; in experiment [10], above 25 µg/mL; in [11] it was 25 µg/mL. The compound also showed an MIC against bacillus subcillus ATCC 6633 in experiment [9] above 25 µg/mL.

Consider `Cc1ccccc1COC(=O)c1ccc(-c2ccc(OC(=O)[C@H]3CC[C@H](CNC(=N)N)CC3)cc2)cc1.Cl` [Example 43, trans-4-guanidinomethyl cyclohexane carboxylic acid[4-[4-(2-methylbenzyloxycarbonyl)phenyl]phenylester].hydrochloride], for which the MIC in experiment [1] is above 25 µg/mL; in experiment [2], 0.20 µg/mL; in [3], 0.39 µg/mL; in experiment [12], 0.10 µg/mL; in experiment [13] it was 0.39 µg/mL; in experiment [4], 0.78 µg/mL. Also, the MIC in [5] was 0.20 µg/mL; in [6] it was 0.20 µg/mL; in experiment [7] it was 0.20 µg/mL; in experiment [14], 0.39 µg/mL.

For the compound `Cl.N=C(N)NC[C@H]1CC[C@H](C(=O)Oc2ccc(-c3ccc(C(=O)OCCc4ccccc4)cc3)cc2)CC1` [Example 26, trans-4-guanidinomethyl cyclohexane carboxylic acid[4-[4-(2-phenylethyloxycarbonyl)phenyl]phenylester].hydrochloride], the MIC was above 25 µg/mL in experiment [1]; 0.39 µg/mL in [2]; 0.78 µg/mL in experiment [3]; 0.20 µg/mL in [4]; 0.10 µg/mL in experiment [5]; 0.39 µg/mL in experiment [6]. For the same compound, the MIC in experiment [7] worked out at 0.20 µg/mL. The compound further registered an MIC against bacillus subcillus ATCC 6633 in experiment [9] above 25 µg/mL.

Take `Cc1ccc(COC(=O)c2ccc(-c3ccc(OC(=O)[C@H]4CC[C@H](CNC(=N)N)CC4)cc3)cc2)c(C)c1.Cl` [Example 25, trans-4-guanidinomethyl cyclohexane carboxylic acid[4-[4-(2,4-dimethylbenzyloxycarbonyl)phenyl]phenylester].hydrochloride]: the MIC in experiment [1] was above 25 µg/mL; in experiment [2], 0.39 µg/mL; in experiment [3], 0.78 µg/mL; in experiment [4], 0.39 µg/mL; in experiment [5] it was 0.20 µg/mL; in experiment [6] it was 0.39 µg/mL. In [7], this compound registered an MIC of 0.39 µg/mL. The compound further gave an MIC against bacillus subcillus ATCC 6633 in experiment [9] above 25 µg/mL.

Turning to `CCOC(=O)c1ccc(Oc2ccc(OC(=O)[C@H]3CC[C@H](CNC(=N)N)CC3)cc2)cc1.Cl` [Example 36, trans-4-guanidinomethyl cyclohexane carboxylic acid[4(4-ethoxycarbonylphenyloxy)phenylester].hydrochloride], the MIC in [1] was above 25 µg/mL; in experiment [2], 6.25 µg/mL; in [3] it was 6.25 µg/mL; in [9], 25 µg/mL; in experiment [10], 6.25 µg/mL; in experiment [11] it was 6.25 µg/mL.
